In one test the test system is MroB/C. The test is described as follows: MroB/C dehydration (Dha formation) of MroA precursor peptide variants, MALDI-TOF-MS / LC-MS/MS. In kind it is biochemical, Micromonospora rosaria. The following applies: MroA2 multi-site variants, in vitro translated, MALDI-TOF-MS. The procedure, abridged: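 MroA variants made by in vitro translation (37 °C, 1 h) were treated for 1 h at room temperature with TEV-cleaved MroB/MroC (2 µM each), GluRS, tRNA^Glu, 6 mM ATP and 5 mM IAA in 50 mM HEPES pH 7.5. Purified substrates were used at 10 µM without IAA. Dehydration was read by positive-mode LC-ESI-MS/MS with CID at 25 eV.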

A further test relates to MroD. Briefly: MroD [4+2] macrocyclization of didehydrated MroA2 variants, MALDI-TOF-MS. In kind it is biochemical, Micromonospora rosaria. The following applies: MroA2 multi-site variants; qualitatively estimated from leader peptide vs remaining didehydrated intermediate. As to the method:
After incubation, the enzyme reaction (18 μL) was split into two equal parts. One part was treated with MBP-MroD such that the final concentration of MBP-MroD is 3 μM, and the other part was added the same volume but with buffer lacking MBP-MroD (50 mM HEPES, 300 mM NaCl, 2.5% glycerol, 0.5 mM TCEP). The reaction further proceeded for 1.5 h at room temperature. All reaction mixture was then desalted with solid-phase extraction using Ziptip with 0.6 μL C18 resin (EMD Millipore) and crystallized on an MTP384 steel target plate using either saturated sinapic acid or 50 mg/mL Super DHB [dissolved in 60% acetonitrile and 0.1% trifluoroacetic acid (TFA)] as the matrix. The crystallized spots were then analyzed using MALDI-TOF-MS (Bruker Ultraflex). The external standard for MALDI-TOF-MS analysis is ProteoMass Peptide and Protein MALDI-MS Calibration Kit (Sigma).

Another test concerns the target MBP-MroD. Briefly: Fluorescence polarization to measure KD with MroD. In kind it is binding, Micromonospora rosaria. As to the method: (§1) All proteins and peptides were prepared in the 0.5× storage buffer before concentration/FP measurement. Experiments were done in triplicates. Stock fluorescein-labeled peptide was measured concentration using A490 (ε: 70,000 M^−1 cm^−1). Initial sample was prepared: 5 nM labelled Δ12MroA1 (for MroD; for MroB, only 2 nM labelled Δ12MroA1 was used), 10 μM MBP-MroB (A280 ε: 178,885 M^−1 cm^−1) or 10 μM MBP-MroD (A280 ε:115,740 M^−1 cm^−1). In a black 96-well plate (Corning 3686), 50 μL of initial sample was added to the first well, followed by 11 3-fold dilutions into subsequent wells containing 5 nM labeled Δ12MroA1. The plate was covered from light and incubated at room temperature for 1 h, and then fluorescence polarization was measured (Biotek Synergy H4 hybrid reader) using the following filter (Excitation: Emission—485 nm/20 nm: 518 nm/20 nm). The obtained data was converted to anisotropy value and plotted against protein concentration. Using the OriginPro software, the data were fitted to receptor depletion equation:^11
(§2) Where: y=anisotropy value, A1=minimum anisotropy, A2=maximum anisotropy, Lt=probe concentration, and x=total enzyme concentration.

For another test, the target named is MBP-MroB. Briefly: Fluorescence polarization to measure KD with MroB. The test is classed as binding, Micromonospora rosaria. As to the method: as §1, §2
A general note: Fluorescence polarisation rises when a labelled molecule tumbles more slowly, as on binding a larger partner.

Where a SMILES comes first, the peptide text is derived from it. The star is where a group is joined. 5FAM = O=C1OC2(c3ccc(O)cc3Oc3cc(O)ccc32)c2ccc(C(=O)*)cc21

In the test with MroB/C, SGIAKAGQSWLI [Number 28] yielded a Dha formation of 2 Dha. For the same compound, the “Relative MroD conversion” value in the test with MroD is listed as 1.

With `CC[C@H](C)[C@H](NC(=O)[C@@H](NC(=O)[C@H](Cc1c[nH]c2ccccc12)NC(=O)[C@H](CO)NC(=O)CNC(=O)[C@H](CC(C)C)NC(=O)[C@H](Cc1c[nH]c2ccccc12)NC(=O)CNC(=O)[C@H](CO)NC(=O)[C@H](C)NC(=O)CNC(=O)[C@@H](NC(=O)[C@H](CCC(=O)O)NC(=O)[C@@H](NC(=O)[C@H](CC(N)=O)NC(=O)CNC(=O)[C@H](CC(C)C)NC(=O)CNC(=O)CNC(=O)[C@@H](NC(=O)[C@H](CO)NC(=O)[C@H](CC(C)C)NC(=O)[C@H](C)NC(=O)[C@H](C)NC(=O)[C@H](CC(C)C)NC(=O)[C@H](CCC(=O)O)NC(=O)[C@H](CCC(=O)O)NC(=O)[C@H](CC(=O)O)NC(=O)[C@@H](NC(=O)[C@H](C)NC(=O)[C@H](CC(C)C)NC(=O)[C@H](CC(=O)O)NC(=O)[C@H](CC(C)C)NC(=O)[C@H](CC(=O)O)NC(=O)[C@@H](NC(=O)[C@@H](NC(=O)[C@H](CC(=O)O)NC(=O)[C@H](CC(C)C)NC(=O)[C@H](CC(=O)O)NC(=O)[C@H](CO)NC(=O)c1ccc2c(c1)C(=O)OC21c2ccc(O)cc2Oc2cc(O)ccc21)[C@@H](C)CC)C(C)C)C(C)C)C(C)C)[C@@H](C)O)C(C)C)C(C)C)C(=O)O` [fluorescein-Δ12MroA1] (5FAM-SDLDIVDLDLAVDEELAALSVGGLGNTEVGASGWLGSWVI-OH), the Kd – broadly, the concentration at which binding is half-saturated – was about 12 nM on MBP-MroD and about 60 nM on MBP-MroB.
